Reference: EP4635969A1, “NOVEL GLUCOCORTICOID, METHOD FOR PREPARING SAME, AND USE THEREOF” (Tianjin Pharmaceutical Biotechnology Co., Ltd., priority 2022, dated 2024)

Legend:
[1] = biological target: T1, glucocorticoid receptor (GR) (Homo sapiens, UniProt P04150); test: Assay for agonist activity on glucocorticoid receptor (luciferase reporter, HEK293 cells transfected with pBIND-GR plasmid); format: cell-based
T1 sequence (P04150 521-777): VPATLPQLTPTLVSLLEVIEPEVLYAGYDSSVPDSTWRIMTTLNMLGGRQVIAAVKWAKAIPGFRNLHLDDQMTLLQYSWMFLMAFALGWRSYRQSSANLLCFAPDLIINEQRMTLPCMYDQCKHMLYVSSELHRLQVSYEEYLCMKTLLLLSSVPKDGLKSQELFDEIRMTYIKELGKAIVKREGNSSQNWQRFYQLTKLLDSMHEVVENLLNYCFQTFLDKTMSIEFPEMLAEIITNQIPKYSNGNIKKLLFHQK
How it was run: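 Readout is luciferase luminescence, with EC50 derived by nonlinear fitting. Compounds ran at 10 concentrations (4-fold steps, top 10 µM, duplicate wells) on pBIND-GR-transfected HEK293 cells in phenol red-free DMEM plus 5% charcoal-stripped serum; 0.1% DMSO served as blank.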

[2] = Determination of stability in plasma in vitro, human plasma (LC-MS/MS); format: in vitro ADME; details: same experimental conditions (human and mouse plasma)
How it was run: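 Compound at 1 µM final in human or mouse plasma (N = 2) at 37 °C; aliquots taken at 0 and preset time points into ice-cold precipitant with internal standard. Remaining compound measured semi-quantitatively by LC-MS/MS as analyte/internal-standard peak-area ratio.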

[3] = Stability in animal lung tissue homogenate, skin tissue homogenate and aqueous humor; format: in vitro ADME
asthma model mice = test: Anti-asthma pharmacodynamic experiment: airway hyperresponsiveness (Penh) after methacholine challenge; format: in vivo, female BALB/c mice; details: compared with the model group
Procedure: Pharmacological Example 4: Pharmacodynamic Experiment on Anti-Asthma
The suspensions were stored at room temperature protected from light until use.
Positive control drug: Budesonide Suspension for Inhalation (specification: 2 mL: 1 mg; AstraZeneca Inc.; Lot No. : 327392) was diluted with injection-grade sodium chloride solution to 0.3 mg/ml as the positive control drug, and stored at room temperature protected from light until use.
Sixty female BALB/c mice underwent a one-week adaptive feeding period. Ten mice were randomly selected as the blank control group, while 50 mice were selected to establish asthma models.
From days 21 to 23 after sensitization, the mice in the model group and drug administration group were exposed to a 30-minute aerosol challenge with 5% OVA, while the mice in the blank control group were exposed to normal saline aerosol for the same duration.
Airway responsiveness was measured in all groups of mice after the last challenge. The mice were placed into a plethysmography chamber, and baseline Penh values were recorded. Subsequently, the mice were challenged with aerosolized methacholine at concentrations from low to high of 0, 6.25, and 12.5 mg/mL, with an aerosol volume of 100 µ L each time for 60 s. […] Penh values were then recorded for 3 min and averaged to compare the airway responsiveness of each group of mice.
Statistical analysis was performed using SPSS software. Measurement data were expressed as mean ± standard deviation. One-way ANOVA was used for intergroup comparisons. For data with homogeneous variance, LSD test was used; for data with heterogeneous variance, Dunnett-t test was used. A value of P < 0.05 was considered statistically significant.

[4] = system: dry eye syndrome model New Zealand rabbits; test: Dry eye syndrome experiment (benzalkonium chloride model): tear film break-up time; format: in vivo, male New Zealand White rabbits; details: compared with the model group
Procedure: (§1) Positive control drug: Fluorometholone Eye Drops (specification: 5 mL/5 mg; Santen Pharmaceutical (CHINA) Co., Ltd.; Lot No.: 1FM6625) was used as the positive control drug and stored at room temperature protected from light until use.
Thirty male New Zealand White rabbits (conventional grade) were prepared. Six rabbits were randomly selected as the blank control group, and the remaining animals were administered 0.1% benzalkonium chloride to the left eye twice daily (morning and evening) , 10 µL/animal each time. On day 6 of modeling, tear secretion was measured using phenol red cotton threads to determine whether the model was successfully established. […] During the administration, all animals except the blank control group were administered 10 µL of 0.1% benzalkonium chloride to the left eye once daily to maintain dry eye symptoms..
• Test time: D3, D7, D15; • Test animals: All animals were tested before grouping; all enrolled surviving animals were tested after administration; • Test method: 1% Fluorescein sodium was dropped onto the inner side of the rabbit's lower eyelid, 10 µL/animal. The rabbit's eyes were closed and gently massaged to evenly distribute the fluorescein sodium on the eye surface. The rabbit's eyes were then sequentially placed under a slit lamp. The tear film break-up time was observed and recorded as the time from eye opening to the appearance of the first dark spot. If no dark spot appeared, the time was calculated as 60 seconds.
(§2) The normality and homogeneity of variance were tested by Levene's test. If there was no statistical significance (P > 0.05), one-way analysis of variance (ANOVA) was used for statistical analysis. If ANOVA was statistically significant (P ≤ 0.05), LSD test (parametric method) was used for comparative analysis. If the variance was heterogeneous (P ≤ 0.05), Kruskal-Wallis test was used. If the Kruskal-Wallis test was statistically significant (P ≤ 0.05), Dunnett's test (nonparametric method) was used for comparative analysis.

[5] = system: dry eye syndrome model New Zealand rabbits; test: Dry eye syndrome experiment (benzalkonium chloride model): corneal fluorescein sodium staining; format: in vivo, male New Zealand White rabbits; details: compared with the model group
Procedure: Pharmacological Example 6: Therapeutic Pharmacodynamic Experiment on Dry Eye Syndrome in New Zealand Rabbits
as §1
Thirty male New Zealand White rabbits (conventional grade) were prepared. Six rabbits were randomly selected as the blank control group, and the remaining animals were administered 0.1% benzalkonium chloride to the left eye twice daily (morning and evening) , 10 µL/animal each time. […] During the administration, all animals except the blank control group were administered 10 µL of 0.1% benzalkonium chloride to the left eye once daily to maintain dry eye symptoms..
• Test time: D3, D7, D15; • Test animals: All animals were tested before grouping; all enrolled surviving animals were tested after administration; • Test method: 2 µL of 1% Fluorescein sodium was dropped into the conjunctival sac. After 5 s, the excess fluorescein was rinsed with 0.9% normal saline. The conjunctival staining was observed under a slit lamp with cobalt blue diffused light.
as §2

epidermal layer in rats = test: Adverse reactions of continuous dermal administration: thickness of the epidermal layer (H&E sections); format: in vivo, SD rats; details: compared with the blank control group
Excerpt: Pharmacological Example 10: Experiment on Adverse Reactions of Continuous Dermal Administration in Rats
Animals: SD rats, SPF grade, with an equal number of males and females, weighing 230-250 g.
Animal grouping: After adaptive feeding, the rats were randomly divided into 4 groups. […] One day before administration, the backs of rats were shaved at an area of 5 cm × 6 cm. […] The rats in the blank control group were applied with the blank matrix of corresponding mass on their backs, twice a day for a consecutive week. Table 21. Animal grouping and drug administration dosages for the experiment on adverse reactions of continuous dermal administration in rats
To examine the effects of continuous administration of the test samples on the epidermal layer, the back skin tissues were stained with hematoxylin and eosin (H&E) (magnification ×40), and the thickness of the epidermal layer was quantitatively measured based on the H&E-stained sections.

[6] = GR agonist EC50 (nM), HEK293 cells transfected with pBIND-GR, luciferase signal
[7] = Nuclear receptor enzyme activity (nM) GR, EC50 of agonist activity, HEK293 reporter cells

| SMILES | EC50 [1, 6] [nM] | plasma instability [2] | stability in animal lung tissue homogenate, skin tissue homogenate, and aqueous humor [3] | Effects on airway hyperresponsiveness (Penh values) in mice (asthma model mice) | tear film break-up time [4] | inflammatory response on the ocular surface / ocular symptoms [5] | thickness of the epidermal layer after continuous dermal administration (epidermal layer in rats) | EC50 [1, 7] [nM] |
| --- | --- | --- | --- | --- | --- | --- | --- | --- |
| C[C@]12C=CC(=O)C=C1CC[C@H]1[C@@H]3C[C@H]4OC(c5ccc(CNC6COC(=O)C6)cc5)O[C@@]4(C(=O)CO)[C@@]3(C)C[C@H](O)[C@@]12F (stereo partly drawn) [Compound 21, (6aS,6bR,7S,8aS,8bS,11aR,12aS,12bS)-6b-Fluoro-7-hydroxy-8b-(2-hydroxyacetyl)-6a,8a-dimethyl-10-(4-(((5-oxotetrahydrofuran-3-yl)amino)methyl)phenyl)-1,2,6a,6b,7,8,8a,8b,11a,12,12a,12b-dodecahydro-4H-naphtho[2',1':4,5]indeno[1,2-d][1,3]dioxol-4-one] | 0.63 | exhibited the characteristic of plasma instability | relatively stable | significantly decreased the Penh values in mice | significantly increased the tear film break-up time | significantly alleviated the ocular symptoms in dry eye syndrome model New Zealand rabbits | no significant changes in the thickness of the epidermal layer observed | – |
| C[C@]12C=CC(=O)C=C1[C@@H](F)C[C@H]1[C@@H]3C[C@H]4OC(c5ccc(CSC6CCOC6=O)cc5)O[C@@]4(C(=O)SCC#N)[C@@]3(C)C[C@H](O)[C@@]12F (stereo partly drawn) [Compound 35, S-(Cyanomethyl) (2S,6aS,6bR,7S,8aS,8bS,11aR,12aS,12bS)-2,6b-difluoro-7-hydroxy-6a,8a-dimethyl-4-oxo-10-(4-( ((2-oxotetrahydrofuran-3-yl)thio)methyl)phenyl)-1,2,4,6a,6b,7,8,8a,11a,12,12a,12b-dodecahydro-8bH-naphtho[2',1':4,5]indeno[1,2-d][1,3]dioxole-8b-carbothioate] | 0.21 | exhibited the characteristic of plasma instability | relatively stable | significantly decreased the Penh values in mice | significantly increased the tear film break-up time | significantly alleviated the ocular symptoms in dry eye syndrome model New Zealand rabbits | no significant changes in the thickness of the epidermal layer observed | 0.21 |
| C[C@]12C=CC(=O)C=C1CC[C@H]1[C@@H]3C[C@H]4OC(c5ccc(COC6CCOC6=O)cc5)O[C@@]4(C(=O)CO)[C@@]3(C)C[C@H](O)[C@@]12F (stereo partly drawn) [Compound 16, (6aS,6bR,7S,8aS,8bS,11aR,12aS,12bS)-6b-Fluoro-7-hydroxy-8b-(2-hydroxyacetyl)-6a,8a-dimethyl-10-(4-(((2-oxotetrahydrofuran-3-yl)oxy)methyl)phenyl)-1,2,6a,6b,7,8,8a,8b,11a,12,12a,12b-do decahydro-4H-naphtho[2',1':4,5]indeno[1,2-d][1,3]dioxol-4-one] | 0.43 | exhibited the characteristic of plasma instability | relatively stable | significantly decreased the Penh values in mice | significantly increased the tear film break-up time | significantly alleviated the ocular symptoms in dry eye syndrome model New Zealand rabbits | no significant changes in the thickness of the epidermal layer observed | 0.43 |
| C[C@]12C=CC(=O)C=C1CC[C@H]1[C@@H]3C[C@H]4OC(c5ccc(CSC6CCOC6=O)cn5)O[C@@]4(C(=O)CO)[C@@]3(C)C[C@H](O)[C@@]12Cl (stereo partly drawn) [Compound 51, (6aS,6bR,7S,8aS,8bS,11aR,12aS,12bS)-6b-Chloro-7-hydroxy-8b-(2-hydroxyacetyl)-6a,8a-dimethyl-10-(5-(((2-oxotetrahydrofuran-3-yl)thio)methyl)pyridin-2-yl)-1,2,6a,6b,7,8,8a,8b,11a,12,12a,12 b-dodecahydro-4H-naphtho[2',1':4,5]indeno[1,2-d][1,3]dioxol-4-one] | 0.82 | exhibited the characteristic of plasma instability | relatively stable | significantly decreased the Penh values in mice | significantly increased the tear film break-up time | significantly alleviated the ocular symptoms in dry eye syndrome model New Zealand rabbits | no significant changes in the thickness of the epidermal layer observed | – |
